Assay results from patent publication US8697385B1, “Protein controlling synthesis of collagen and associated methods” (Florida State University Research Foundation, Inc., priority 2009, dated 2014).

Assays:
[1] = system: wild-type (WT) MEFs; experiment: Western blot analysis of collagen α1(I) polypeptide, WT MEFs; type: cell-based, mouse; conditions: ML-7 treatment
Description: (§1) ML-7, blebbistatin, cytochalasin B, puromycin, and cycloheximide were purchased from Sigma. ML-7 was used at 40 μM, blebbistatin was used at 100 μM, and cytochalasin B was used at 20 μM. Cells were incubated with the drugs for 16 h before analysis. Puromycin (200 μg/ml) and cycloheximide (100 μg/ml) were added to the cells for 2 h. Human lung fibroblasts have been described previously.16 Scleroderma fibroblasts were purchased from the European Collection of Cell Cultures (cell line BM0070) and derived from the skin of a scleroderma patient. MEFs were derived from knock-in mice in which the 5′SL of the collagen α1(I) gene has been mutated (Parsons et al., submitted). Several independent cell isolates were used throughout the study. All cells were cultured in Dulbecco's modified Eagle's medium supplemented with 10% fetal bovine serum for up to 10 passages. […] [^32P]dCTP was included in the PCR step to label the products, which were resolved on sequencing gels, as described previously.^8,31,49,50 When RNA from polysomal fractions was analyzed, an equal aliquot of each fraction was used. […]
Protein concentration was estimated by the Bradford assay, with bovine serum albumin as standard.^51 Western blot analyses of cellular proteins were performed using 50 μg of protein. […] The medium was collected, and an aliquot was analyzed directly by Western blot analysis. […]

[2] = system: LARP6 and nonmuscle myosin; experiment: Coimmunoprecipitation of nonmuscle myosin IIB with HA-tagged LARP6; type: cell-based, human; conditions: lung fibroblasts; ML-7-treated vs control cells
Description: as §1, with “passages. Plasmid constructs and adenovirus preparation.” for “passages.”
One of the roles of nonmuscle myosin filaments may be to present collagen mRNAs to ribosomes. Therefore, we assessed if the association of collagen mRNAs with nonmuscle myosin is dependent on intact polysomes. […]

O=S(=O)(c1cccc2c(I)cccc12)N1CCCNCC1 [ML-7]
cellular level of α1(I) polypeptide [1]: did not change | secretion of α1(I) polypeptide into the medium [1]: drastically reduced | myosin IIB pulled down with LARP6 [2]: significantly less
